Experiment [1] deals with T1, ACAT in J774 cells (Mus musculus, UniProt Q61263).
T1 construct: endogenous in cells; host or cells: J774 cells (mouse macrophage-like)
T1 sequence (Q61263 1-540): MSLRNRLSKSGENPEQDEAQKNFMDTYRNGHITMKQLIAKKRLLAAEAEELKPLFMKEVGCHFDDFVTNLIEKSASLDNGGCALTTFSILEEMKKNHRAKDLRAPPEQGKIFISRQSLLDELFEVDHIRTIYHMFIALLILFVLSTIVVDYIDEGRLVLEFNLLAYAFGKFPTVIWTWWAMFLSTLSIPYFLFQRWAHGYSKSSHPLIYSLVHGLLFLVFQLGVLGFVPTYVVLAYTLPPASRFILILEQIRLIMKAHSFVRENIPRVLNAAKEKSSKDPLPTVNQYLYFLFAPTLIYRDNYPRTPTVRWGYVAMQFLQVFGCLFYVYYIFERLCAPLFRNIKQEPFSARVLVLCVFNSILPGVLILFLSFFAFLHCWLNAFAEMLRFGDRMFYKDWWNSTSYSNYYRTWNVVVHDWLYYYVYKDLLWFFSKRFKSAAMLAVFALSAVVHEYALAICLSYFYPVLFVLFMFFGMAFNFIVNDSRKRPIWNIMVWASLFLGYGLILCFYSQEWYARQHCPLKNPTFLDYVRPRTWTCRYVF
As to the kind of experiment: Test for inhibitory activity against ACAT using J774 cells. The class given is cell-based. The settings on record: 100 nM of each compound, Mean ± S.D., n = 3, vs DMSO control, read-out: Inhibition rate against ACAT activity in J774 cells. How it is done:
i) Test for inhibitory activity against ACAT using J774 cells:
The ACAT activity of J774 cells was measured as the radioactivity of cholesteryl oleate produced from [^14 C]oleic acid and cholesterol which were added to a culture solution.
The extract was dried to solid under reduced pressure. After the resultant residue was then developed (developing solvent: diethyl ether/hexane/acetic acid=80/20/1) by TLC (thin-layer chromatography), the amount of cholesteryl oleate formed was determined by an imaging plate.

In experiment [2] the target is T2, ACAT of rat liver microsomes (Rattus norvegicus, UniProt Q7TQM4).
T2 construct: rat liver microsome fraction prepared in accordance with a method known per se; from tissue; host or cells: rat liver microsomes
T2 sequence (Q7TQM4 1-524): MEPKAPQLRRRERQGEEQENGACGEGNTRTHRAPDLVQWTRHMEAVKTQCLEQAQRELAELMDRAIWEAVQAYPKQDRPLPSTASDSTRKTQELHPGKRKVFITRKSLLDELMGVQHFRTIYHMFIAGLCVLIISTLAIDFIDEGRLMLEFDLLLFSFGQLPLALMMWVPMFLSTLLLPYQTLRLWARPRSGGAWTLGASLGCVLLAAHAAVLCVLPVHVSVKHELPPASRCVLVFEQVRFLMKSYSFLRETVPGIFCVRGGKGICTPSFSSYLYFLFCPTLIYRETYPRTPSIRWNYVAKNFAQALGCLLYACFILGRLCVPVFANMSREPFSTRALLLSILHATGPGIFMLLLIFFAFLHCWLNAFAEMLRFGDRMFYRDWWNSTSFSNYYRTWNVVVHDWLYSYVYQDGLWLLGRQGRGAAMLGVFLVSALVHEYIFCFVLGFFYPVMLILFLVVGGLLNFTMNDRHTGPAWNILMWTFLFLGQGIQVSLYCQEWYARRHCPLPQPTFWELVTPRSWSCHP
As to the kind of experiment: Test for inhibitory activity against ACAT using rat liver microsomes. The class given is biochemical. The settings on record: 5 min; 100 nM of each compound; Mean ± S.D.; n = 3; vs DMSO control; read-out: Inhibition rate against ACAT activity in rat liver microsome. How it is done: More specifically, [^14 C]oleoyl-CoA and delipidized BSA were added to a rat liver microsome fraction prepared in accordance with a method known per se in the art to conduct a reaction at 37° C. for 5 minutes. After the reaction, the lipid in the reaction mixture was extracted with hexane, and the extract was dried to solid under reduced pressure.
A general note: Liver microsomes are a subcellular fraction often used to study metabolism.

Each structure is given as a SMILES string.

Turning to `CC(C)c1cccc(C(C)C)c1NC(=O)NCc1cccc(OCc2ccc([N+](=O)[O-])cc2)c1` [Compound 1, 1-(2,6-diisopropylphenyl)-3-[3-(4-nitrobenzyloxy)benzyl]urea], the inhibition at 0.1 µM came out at 86.3 ± 1.58% in experiment [1] and 0% in experiment [2].

A word on the inhibition: it is the percentage by which the read-out fell short of the control.

The values are drawn from patent US5922767A, “Substituted benzylurea derivatives and medicine containing the same” (SS Pharmaceutical Co., Ltd., priority 1996, dated 1999).
